Data published in ChEMBL document CHEMBL3616451, “Design and synthesis of 11α-substituted bile acid derivatives as potential anti-tuberculosis agents” (Bioorg Med Chem Lett, 2015).
Converted amounts (≈) assume the structure as drawn. The source made the active and inactive calls. The calls are words filed in the database; no cut-off is given here.

Experiments:
[1] = Cytotoxicity against human PANC1 cells after 48 hrs by MTT assay; format: cell-based, PANC-1; settings: for GI50 at 48 h: PANC-1 cells; for GI90: panc-1, 48 h
A549 = assay: (§1) Cytotoxicity against human A549 cells after 48 hrs by MTT assay; format: cell-based; settings: a549, 48 h
[2] = as §1; format: cell-based; settings: A549 cells
[3] = (§2) Cytotoxicity against human THP1 cells after 48 hrs by MTT assay; format: cell-based, THP-1; settings: THP-1 cells
THP-1 = assay: as §2; format: cell-based; settings: thp-1, 48 h
[4] = system: Mycobacterium tuberculosis; assay: Anti-tubercular activity against rifampicin, isoniazid, ethambutol and pyrazinamide-sensitive dormant phage of Mycobacterium tuberculosis H37Ra ATCC 25177 infected in human THP1 cells by neutral red assay; format: functional, organism-based; settings: H37Ra ATCC 25177, THP-1
[5] = system: Mycobacterium tuberculosis; assay: Anti-tubercular activity against rifampicin, isoniazid, ethambutol and pyrazinamide-sensitive Mycobacterium tuberculosis H37Ra ATCC 25177 assessed as growth inhibition at 10 ug/ml by XRMA method relative to control; format: functional; settings: read-out: GI
Bacillus subtilis = assay: Antibacterial activity against Bacillus subtilis ATCC 23857 assessed as growth inhibition at 30 ug/ml relative to control; format: functional; settings: for inhibition of growth at 30 µg/mL: read-out: GI
Staphylococcus aureus = assay: Antibacterial activity against Staphylococcus aureus ATCC 29213 assessed as growth inhibition at 30 ug/ml relative to control; format: functional
[6] = system: Mycobacterium tuberculosis; assay: Anti-tubercular activity against rifampicin, isoniazid, ethambutol and pyrazinamide-sensitive Mycobacterium tuberculosis H37Ra ATCC 25177 assessed as growth inhibition at 3 ug/ml by XRMA method relative to control; format: functional; settings: read-out: GI
[7] = system: Mycobacterium tuberculosis; assay: Anti-tubercular activity against rifampicin, isoniazid, ethambutol and pyrazinamide-sensitive dormant phage of Mycobacterium tuberculosis H37Ra ATCC 25177 by serial dilution method; format: functional, organism-based
Pseudomonas fluorescens = assay: Antibacterial activity against Pseudomonas fluorescens ATCC 13525 assessed as growth inhibition at 30 ug/ml relative to control; format: functional; settings: for inhibition of growth at 30 µg/mL: read-out: GI
[8] = system: Mycobacterium tuberculosis; assay: Anti-tubercular activity against rifampicin, isoniazid, ethambutol and pyrazinamide-sensitive active phage of Mycobacterium tuberculosis H37Ra ATCC 25177 infected in human THP1 cells by neutral red assay; format: functional, organism-based; settings: H37Ra ATCC 25177, THP-1
Escherichia coli = assay: Antibacterial activity against Escherichia coli […] assessed as growth inhibition at 30 ug/ml relative to control; format: functional; settings: for inhibition of growth at 30 µg/mL: read-out: GI
[9] = system: Mycobacterium tuberculosis; assay: Anti-tubercular activity against rifampicin, isoniazid, ethambutol and pyrazinamide-sensitive Mycobacterium tuberculosis H37Ra ATCC 25177 assessed as growth inhibition at 30 ug/ml by XRMA method relative to control; format: functional; settings: read-out: GI
[10] = system: Mycobacterium tuberculosis; assay: Anti-tubercular activity against rifampicin, isoniazid, ethambutol and pyrazinamide-sensitive active phage of Mycobacterium tuberculosis H37Ra ATCC 25177 by serial dilution method; format: functional, organism-based

Row | SMILES | GI50 at 48 h [1] [µg/mL] | GI90 [1] [µg/mL] | GI90 (A549) [µg/mL] | GI50 at 48 h [2] [µg/mL] | GI50 at 48 h [3] [µg/mL] | GI90 (THP-1) [µg/mL] | IC50 [4] [µg/mL] | IC90 [4] [µg/mL] | inhibition of growth at 10 µg/mL [5] [%] | inhibition of growth at 3 µg/mL [6] [%] | IC50 [7] [µg/mL] | IC90 [7] [µg/mL] | inhibition of growth at 30 µg/mL (Pseudomonas fluorescens) [%] | IC50 [8] [µg/mL] | IC90 [8] [µg/mL] | inhibition of growth at 30 µg/mL (Escherichia coli) [%] | inhibition of growth at 30 µg/mL [9] [%] | IC50 [10] [µg/mL] | IC90 [10] [µg/mL] | growth inhibition (GI) (Staphylococcus aureus) | further results
1 | CC(=O)O[C@H]1C(=O)[C@@]2(C)[C@H]([C@H](OC(=O)c3ccccc3)[C@]3(O)C[C@H](OC(=O)[C@H](O)[C@@H](NC(=O)c4ccccc4)c4ccccc4)C(C)=C1C3(C)C)[C@]1(OC(C)=O)CO[C@@H]1C[C@@H]2O [PACLITAXEL] | 0.128 (≈ 0.15 µM) | 5.715 (≈ 6.69 µM) | 0.0706 (≈ 0.0827 µM) | 0.0035 (≈ 0.0041 µM) | 0.137 (≈ 0.161 µM) | 5.814 (≈ 6.81 µM) | – | – | – | – | – | – | – | – | – | – | – | – | – | – | –
2 | COC(=O)CC[C@@H](C)[C@H]1CC[C@H]2[C@H]3[C@H]([C@H](NC(=O)C(CO)NC(=O)OC(C)(C)C)C(=O)[C@]12C)[C@@]1(C)CC[C@@H](OC(C)=O)C[C@H]1C[C@H]3OC(C)=O (stereo partly specified) | > 100 | > 100 | > 100 | > 100 | 76.2 (≈ 108 µM) | > 100 | 3.44 (≈ 4.87 µM) | 26.3 (≈ 37.2 µM) | 73 | 68 | 6.16 (≈ 8.71 µM) | 26.3 (≈ 37.2 µM) | 29.9 | 3.98 (≈ 5.63 µM) | 26.9 (≈ 38 µM) | 43.2 | 91 | 2.7 (≈ 3.82 µM) | 28.9 (≈ 40.8 µM) | – | growth inhibition (GI) (Bacillus subtilis): inactive; inhibition of growth at 30 µg/mL (Staphylococcus aureus; read-out: GI): 11.9%
3 | COC(=O)CC[C@@H](C)[C@H]1CC[C@H]2[C@H]3[C@H]([C@H](NC(=O)[C@H]4CCCN4C(=O)OC(C)(C)C)C(=O)[C@]12C)[C@@]1(C)CC[C@@H](OC(C)=O)C[C@H]1C[C@H]3OC(C)=O | 15 (≈ 20.9 µM) | > 100 | > 100 | 52 (≈ 72.5 µM) | 46 (≈ 64.1 µM) | > 100 | 1.32 (≈ 1.84 µM) | 23.8 (≈ 33.3 µM) | 80 | 66 | 2.25 (≈ 3.14 µM) | 27 (≈ 37.7 µM) | 61.5 | 1.96 (≈ 2.73 µM) | 27.3 (≈ 38.1 µM) | 26.8 | 94 | 3.62 (≈ 5.05 µM) | 27.5 (≈ 38.3 µM) | inactive | growth inhibition (GI) (Bacillus subtilis): inactive
4 | CCCCCCc1cn([C@@H]2C(=O)[C@]3(C)[C@@H]([C@H](C)CCC(=O)OC)CC[C@H]3[C@H]3[C@H]2[C@@]2(C)CC[C@@H](OC(C)=O)C[C@H]2C[C@H]3OC(C)=O)nn1 | > 100 | > 100 | > 100 | > 100 | > 100 | > 100 | 0.13 (≈ 0.198 µM) | 1.55 (≈ 2.36 µM) | 96 | 91 | 0.17 (≈ 0.259 µM) | 2.43 (≈ 3.7 µM) | – | 0.25 (≈ 0.381 µM) | 2.8 (≈ 4.27 µM) | – | 97 | 0.64 (≈ 0.976 µM) | 2.63 (≈ 4.01 µM) | inactive | inhibition of growth at 30 µg/mL (Bacillus subtilis): 22.9%; growth inhibition (GI) (Pseudomonas fluorescens): inactive; growth inhibition (GI) (Escherichia coli): inactive
5 | COC(=O)CC[C@@H](C)[C@H]1CC[C@H]2[C@H]3[C@H]([C@H](NC(=O)[C@H]4CCCN4)C(=O)[C@]12C)[C@@]1(C)CC[C@@H](OC(C)=O)C[C@H]1C[C@H]3OC(C)=O | – | – | – | – | – | – | – | – | 66 | 55 | – | – | 20.1 | – | – | 23.9 | 71 | – | – | inactive | growth inhibition (GI) (Bacillus subtilis): inactive
6 | COC(=O)CC[C@@H](C)[C@H]1CC[C@H]2[C@H]3[C@H]([C@H](n4nnc5ccccc54)C(=O)[C@]12C)[C@@]1(C)CC[C@@H](OC(C)=O)C[C@H]1C[C@H]3OC(C)=O | 50 (≈ 80.4 µM) | > 100 | > 100 | 20 (≈ 32.2 µM) | 29.9 (≈ 48.1 µM) | > 100 | 1.65 (≈ 2.65 µM) | 8.16 (≈ 13.1 µM) | 94 | 76 | 1.27 (≈ 2.04 µM) | 7.15 (≈ 11.5 µM) | 46.8 | 1.11 (≈ 1.79 µM) | 8.6 (≈ 13.8 µM) | 33.8 | 96 | 1.08 (≈ 1.74 µM) | 9.79 (≈ 15.7 µM) | inactive | inhibition of growth at 30 µg/mL (Bacillus subtilis): 8.94%
7 | COC(=O)CC[C@@H](C)[C@H]1CC[C@H]2[C@H]3[C@H]([C@H](n4cc(-c5ccc(F)cc5)nn4)C(=O)[C@]12C)[C@@]1(C)CC[C@@H](OC(C)=O)C[C@H]1C[C@H]3OC(C)=O | – | – | – | – | – | – | – | – | 75 | 71 | – | – | 23.2 | – | – | 43.8 | 79 | – | – | inactive | inhibition of growth at 30 µg/mL (Bacillus subtilis): 20%
8 | COC(=O)CC[C@@H](C)[C@H]1CC[C@H]2[C@H]3[C@H]([C@H](n4cc(-c5ccccc5)nn4)C(=O)[C@]12C)[C@@]1(C)CC[C@@H](OC(C)=O)C[C@H]1C[C@H]3OC(C)=O | – | – | – | – | – | – | – | – | 68 | 67 | – | – | – | – | – | 17.8 | 74 | – | – | inactive | inhibition of growth at 30 µg/mL (Bacillus subtilis): 20%; growth inhibition (GI) (Pseudomonas fluorescens): inactive
